Test results reported in ChEMBL document CHEMBL3046516, “Efficacy of neem limonoids on Cnaphalocrocis medinalis (Guenee) (Lepidoptera: Pyralidae) the rice leaffolder” (2005).

Tests used:
Cnaphalocrocis medinalis [1] = assay: Antifeedant activity against 4 hr starved fifth-instar larval stage of Cnaphalocrocis medinalis infested compound-treated rice leaves assessed as efficacy of conversion of digested food at 1 ppm measured every 24 hr for 4 days by gravimetric method (reference value: 46.45 +/- 4.12%); format: functional
Cnaphalocrocis medinalis [2] = assay: Antifeedant activity against 4 hr starved fifth-instar larval stage of Cnaphalocrocis medinalis infested compound-treated rice leaves assessed as relative consumption rate at 1 ppm measured every 24 hr for 4 days by gravimetric method (reference value: 0.524 +/- 0.03 mg/mg/day); format: functional
Cnaphalocrocis medinalis [3] = assay: Antifeedant activity against 4 hr starved fifth-instar larval stage of Cnaphalocrocis medinalis infested compound-treated rice leaves assessed as relative growth rate at 1 ppm measured every 24 hr for 4 days by gravimetric method (reference value: 0.524 +/- 0.03 mg/mg/day); format: functional
Cnaphalocrocis medinalis [4] = assay: Antifeedant activity against 4 hr starved fifth-instar larval stage of Cnaphalocrocis medinalis infested compound-treated rice leaves assessed as feeding deterrence index at 2 ppm after 12 hr by leaf cut-choice assay (reference value: 0.05 +/- 0.003%); format: functional
Cnaphalocrocis medinalis [5] = assay: Antifeedant activity against 4 hr starved fifth-instar larval stage of Cnaphalocrocis medinalis infested compound-treated rice leaves assessed as efficacy of conversion of ingested food at 1 ppm measured every 24 hr for 4 days by gravimetric method (reference value: 20.81 +/- 1.58%); format: functional
Cnaphalocrocis medinalis [6] = assay: Antifeedant activity against 4 hr starved fifth-instar larval stage of Cnaphalocrocis medinalis infested compound-treated rice leaves assessed as approximate digestibility at 1 ppm measured every 24 hr for 4 days by gravimetric method (reference value: 44.81 +/- 4.12%); format: functional
Cnaphalocrocis medinalis [7] = assay: Antifeedant activity against 4 hr starved fifth-instar larval stage of Cnaphalocrocis medinalis infested compound-treated rice leaves assessed as reduction in diet consumption after 12 hr by leaf cut-choice assay; format: functional, organism-based
Cnaphalocrocis medinalis [8] = assay: Antifeedant activity against 4 hr starved fifth-instar larval stage of Cnaphalocrocis medinalis infested compound-treated rice leaves assessed as consumption index at 1 ppm measured every 24 hr for 4 days by gravimetric method (reference value: 2.52 +/- 0.15 mg/mg/day); format: functional

Row | SMILES | Activity (Cnaphalocrocis medinalis [1]) [%] | Activity (Cnaphalocrocis medinalis [2]) [mg/mg/day] | Activity (Cnaphalocrocis medinalis [3]) [mg/mg/day] | FDI (Cnaphalocrocis medinalis [4]) [%] | ECI (Cnaphalocrocis medinalis [5]) [%] | Activity (Cnaphalocrocis medinalis [6]) [%] | Activity (Cnaphalocrocis medinalis [7]) | Activity (Cnaphalocrocis medinalis [8]) [mg/mg/day]
1 | CC(=O)O[C@@H]1C[C@H]2C(C)(C)C(=O)C=C[C@]2(C)[C@H]2CC[C@]3(C)C(=CC(=O)[C@@]3(O)c3ccoc3)[C@@]21C [17-HYDROXYAZADIRADIONE] | 38.657 | 0.957 | 0.4197 | 23.6 | 18.247 | 47.217 | Dose-dependent effect | 2.307
2 | C/C=C(\C)C(=O)O[C@H]1C[C@@H](OC(C)=O)[C@@]2(C(=O)OC)CO[C@H]3[C@@H](O)[C@@](C)([C@]45O[C@@]4(C)[C@@H]4C[C@H]5O[C@@H]5OC=C[C@@]54O)[C@H]4[C@]1(CO[C@]4(O)C(=O)OC)[C@@H]32 [AZADIRACHTIN A] | 12.357 | 0.187 | 0.0277 | 93.2 | 6.507 | 52.717 | Dose-dependent effect | 0.427
3 | CC1(C)C(=O)C=C[C@]2(C)[C@H]3CC[C@@]4(C)[C@H](c5ccoc5)OC(=O)[C@H]5O[C@]54[C@]3(C)[C@H](O)C[C@@H]12 [DEACETYLGEDUNIN] | 36.127 | 0.927 | 0.3857 | 23.6 | 17.507 | 48.457 | Dose-dependent effect | 2.207
4 | COC(=O)C[C@H]1[C@]2(C)C3=C(C)[C@H](c4ccoc4)C[C@H]3O[C@@H]2[C@H](O)[C@@H]2[C@]1(C)C(=O)C=C[C@@]2(C)C(=O)OC [DEACETYLNIMBIN] | 39.117 | 0.957 | 0.4247 | 21 | 18.287 | 46.747 | Dose-dependent effect | 2.327
5 | CC(=O)O[C@@H]1C[C@H]2C(C)(C)C(=O)C=C[C@]2(C)[C@H]2CC[C@@]3(C)[C@H](c4ccoc4)OC(=O)[C@H]4O[C@]43[C@@]21C [GEDUNIN] | 43.157 | 1.007 | 0.4707 | 18.8 | 20.07 | 46.457 | Dose-dependent effect | 2.357
6 | C/C=C(/C)C(=O)O[C@H]1C[C@@H](OC(C)=O)[C@@]2(C)CO[C@H]3[C@H]4O[C@@H]5C[C@@H](c6ccoc6)C(C)=C5[C@@]4(C)[C@H](CC(=O)OC)[C@]1(C)[C@@H]32 [SALANNIN] | 33.527 | 0.557 | 0.2577 | 49.6 | 16.627 | 49.617 | Dose-dependent effect | 1.557
